Source: patent US12054449B2, “Phenylcarbamate crystalline form and method for manufacturing the same” (BIO-PHARM SOLUTIONS CO., LTD., priority 2021, dated 2024)
≈ marks a conversion by molar mass, not a printed value. Entries after “also recorded” stand apart in the source; their conditions may differ. Read-outs that look alike come from different tables or passages of the source.

Columns and labels:
Format in all cases: physicochemical
[1] = Competitive slurry experiment for Pattern 1 and Pattern 3; conditions: competitive slurries in DIPE and heptane, room temperature and 50° C.
Experimental: To investigate the relative thermodynamic stability of various crystalline form patterns at room temperature and 50° C., competitive slurry experiments were carried out.
A mixture of Pattern 1 and Pattern 3 (ED01748-028-003-00, 4×20 mg) was dispensed into vials. They were treated with 250 μL of a saturated solution of Pattern 1 (ED01748-006-001-00) in DIPE or heptane (50 mg of ED01748-006-001-00 was treated with DIPE or heptane and heated at 50° C., a portion was removed as needed, and the resulting product was filtered through a 0.45 μm syringe filter, thereby forming a slurry). The produced slurry was stirred at room temperature or 50° C. After analysis, the solid was returned to the vial, and an additional saturated solution was added as needed to maintain the slurry. After 4 days, the purity of the material was confirmed by UPLC.

[2] = Thermodynamic solubility by UPLC in biological media (FaSSGF, FaSSIF); conditions: thermodynamic from solid, 37° C., 24 h orbital shaker, all solids dissolved
Experimental: A thermodynamic solubility in water was determined by providing a suitable concentration of compound prepared by suspending a sufficient compound in water or buffer according to estimated solubilities of the medium and the compound. Quantification was done by UPLC with reference to a standard calibration curve. A solubility was calculated with QuanLynx using a peak area determined by the integration of a peak found at the same retention time as the main peak in the standard injection.
To measure the solubility of ED01748-006-001-00 Pattern 1, experiments were carried out in biological media (Fasted simulated gastric fluid (FaSSGF) and Fasted simulated intestinal fluid (FaSSIF)) at 37° C. […] each of samples was dispersed into each of four vials, 1 mL each of FaSSGF and FaSSIF was added to each of the two vials and incubated in an orbital shaker for 24 hours. After incubation, all solids in each sample were dissolved, and the solubility was measured as follows.

[3] = Polymorphic screening with solvents and solvent/antisolvent
[4] = Melting and cooling of Pattern 1 (DSC A experiment; melting and rapid cooling), degradation by 1H NMR/UPLC
Experimental: A portion of ED01748-006-001-00 was heated in a differential scanning calorimeter at 10° C./min to 110° C., and then cooled to 30° C. at 50° C./min. The contents of a DSC pan were analyzed by ^1H NMR.
Each (about 10 mg) of two ED01748-006-001-00 samples was put into a vial, and then into a drying pistol which had been preheated to 110° C. for 10 minutes under ambient pressure. The molten sample was removed, followed by rapid cooling with dry ice. The glass material from the first sample was rapidly crystallized by impacting a part that characterized it. As a result of XRPD analysis, the glass material was identified as Pattern 1 (FIG. 7).

[5] = Log D (shake flask at pH 5) and Log P
[6] = Competitive slurry experiment for Pattern 1, Pattern 3, Pattern 6 and Pattern 11
Experimental: A mixture of Pattern 1 and Pattern 3 (ED01748-028-003-00, 10 mg each) was dispensed into four vials, and Pattern 6 (ED01748-034-002-00, 5 mg) and Pattern 11 (ED01748-037-002-00, 5 mg) were added to respective vials. Each sample was treated with 300 μL of a filtered saturated solution of Pattern 1 (ED01748-006-001-00) prepared in DIPE or heptane. The resulting slurries were stirred at room temperature and 50° C. A small sample was periodically removed and analyzed by)(RFD, followed by monitoring as described in the following table.
After analysis, the solid was returned to the vial, and a saturated solution was additionally injected as needed to maintain the slurries. After 25 days, the purity of the solid material obtained in the heptane experiment was confirmed by UPLC, and no significant decrease in purity was shown by UPLC.

[7] = Storage under stress humidity (40° C./75% RH or RT/97% RH, 7 days) with XRPD, UPLC, 1H NMR
[8] = 110° C. for 10 minutes, rapid cooling with dry ice

## C[C@H](OC(N)=O)[C@@H](O)c1ccccc1Cl [ED01748-006-001-00, 1-(2-chlorophenyl)-(S)-1-hydroxypropyl-(S)-2-carbamate]
[1]
  Relative thermodynamic stability: more thermodynamically stable than Pattern 3
[2]; fasted simulated gastric fluid (FaSSGF), fassgf or other biorelevant, fasted simulated gastric fluid, read-out: FaSSGF solubility after 24 h
  solubility at 24 h: 16.8 mg/mL (≈ 73.3 mM)
[2]; fasted simulated intestinal fluid (FaSSIF), fassif, fasted simulated intestinal fluid, read-out: FaSSIF solubility after 24 h
  solubility at 24 h: 14.1 mg/mL (≈ 61.2 mM)
[3]; Exp. 1, 2-propanol 60 ul / Toluene 100 ul, Shaken RT, refrigerated
  Result: Soluble
[3]; Exp. 1, solvent 2-propanol 60 ul, anti-solvent Toluene 100 ul
  Initial result: Soluble
[3]; Exp. 2, 2-propanol 60 ul / Heptane 200 ul, Shaken RT, refrigerated
  Result: Soluble
[3]; Exp. 2, solvent 2-propanol 60 ul, anti-solvent Heptane 200 ul
  Initial result: Soluble
[3]; Exp. 3, 2-propanol 60 ul / Diethyl ether 100 ul, Shaken RT, refrigerated
  Result: Soluble
[3]; Exp. 3, solvent 2-propanol 60 ul, anti-solvent Diethyl ether 100 ul
  Initial result: Soluble
[3]; Exp. 4, 2-propanol 60 ul / TBME 200 ul, Shaken RT, refrigerated
  Result: Soluble
[3]; Exp. 4, solvent 2-propanol 60 ul, anti-solvent TBME 200 ul
  Initial result: Soluble
[3]; Exp. 5, acetone 60 ul / Toluene 100 ul, Shaken RT, refrigerated
  Result: Soluble
[3]; Exp. 5, solvent acetone 60 ul, anti-solvent Toluene 100 ul
  Initial result: Soluble
[3]; Exp. 6, acetone 60 ul / Heptane 175 ul, notes: oil
  Result: oil
[3]; Exp. 6, solvent acetone 60 ul, anti-solvent Heptane 175 ul
  Initial result: Cloudy
[3]; Exp. 7, acetone 60 ul / Diethyl ether 100 ul, Shaken RT, refrigerated
  Result: Soluble
[3]; Exp. 7, solvent acetone 60 ul, anti-solvent Diethyl ether 100 ul
  Initial result: Soluble
[3]; Exp. 8, acetone 60 ul / TBME 100 ul, Shaken RT, refrigerated
  Result: Soluble
[3]; Exp. 8, solvent acetone 60 ul, anti-solvent TBME 100 ul
  Initial result: Soluble
[3]; Exp. 9, chloroform 60 ul / Toluene 100 ul
  Result: crystalline form obtained (XRPD): Pattern 9
[3]; Exp. 9, chloroform 60 ul / Toluene 100 ul, Shaken RT, solid XRPD
  Result: Crystalline
[3]; Exp. 9, solvent chloroform 60 ul, anti-solvent Toluene 100 ul
  Initial result: Precipitate
[3]; Exp. 10, chloroform 60 ul / Heptane 25 ul
  Result: crystalline form obtained (XRPD): Pattern 8
[3]; Exp. 10, chloroform 60 ul / Heptane 25 ul, Shaken RT, solid XRPD
  Result: Crystalline
[3]; Exp. 10, solvent chloroform 60 ul, anti-solvent Heptane 25 ul
  Initial result: Precipitate
[3]; Exp. 11, chloroform 60 ul / Diethyl ether 100 ul, Shaken RT, refrigerated
  Result: Soluble
[3]; Exp. 11, solvent chloroform 60 ul, anti-solvent Diethyl ether 100 ul
  Initial result: Soluble
[3]; Exp. 12, chloroform 60 ul / TBME 100 ul, Shaken RT, refrigerated
  Result: Soluble
[3]; Exp. 12, solvent chloroform 60 ul, anti-solvent TBME 100 ul
  Initial result: Soluble
[3]; Exp. 13, DCM 80 ul / Toluene 100 ul
  Result: crystalline form obtained (XRPD): Pattern 9
[3]; Exp. 13, DCM 80 ul / Toluene 100 ul, Shaken RT, solid XRPD
  Result: Crystalline
[3]; Exp. 13, solvent DCM 80 ul, anti-solvent Toluene 100 ul
  Initial result: Precipitate
[3]; Exp. 14 (second line so numbered), DCM 80 ul / Diethyl ether 100 ul, Shaken RT, refrigerated
  Result: Soluble
[3]; Exp. 14 (second line so numbered), solvent DCM 80 ul, anti-solvent Diethyl ether 100 ul
  Initial result: Soluble
[3]; Exp. 14, DCM 80 ul / Heptane 50 ul
  Result: crystalline form obtained (XRPD): Pattern 8
[3]; Exp. 14, DCM 80 ul / Heptane 50 ul, Shaken RT, solid XRPD
  Result: Crystalline
[3]; Exp. 14, solvent DCM 80 ul, anti-solvent Heptane 50 ul
  Initial result: Precipitate
[3]; Exp. 16, DCM 80 ul / TBME 100 ul, Shaken RT, refrigerated
  Result: Soluble
[3]; Exp. 16, solvent DCM 80 ul, anti-solvent TBME 100 ul
  Initial result: Soluble
[3]; Exp. 18, ethyl acetate 60 ul / Heptane 100 ul
  Result: crystalline form obtained (XRPD): Pattern 11
[3]; Exp. 18, ethyl acetate 60 ul / Heptane 100 ul, Oil, then solid formed
  Result: Crystalline
[3]; Exp. 18, solvent ethyl acetate 60 ul, anti-solvent Heptane 100 ul
  Initial result: Cloudy
[3]; Exp. 19, ethyl acetate 60 ul / Diethyl ether 100 ul, Shaken RT, refrigerated
  Result: Soluble
[3]; Exp. 19, solvent ethyl acetate 60 ul, anti-solvent Diethyl ether 100 ul
  Initial result: Soluble
[3]; Exp. 20, ethyl acetate 60 ul / TBME 100 ul, Shaken RT, refrigerated
  Result: Soluble
[3]; Exp. 20, solvent ethyl acetate 60 ul, anti-solvent TBME 100 ul
  Initial result: Soluble
[3]; Exp. 21, ethyl acetate 60 ul / Pentane 225 ul, notes: Oil
  Result: Oil
[3]; Exp. 21, solvent ethyl acetate 60 ul, anti-solvent Pentane 225 ul
  Initial result: Cloudy
[3]; Exp. 22, ethyl acetate 60 ul / cyclohexane 350 ul, Shaken RT, solid XRPD
  Result: Crystalline,
[3]; Exp. 22, solvent ethyl acetate 60 ul, anti-solvent cyclohexane 350 ul
  Initial result: Precipitate
[3]; Exp. 23, ethyl acetate 60 ul / methylcyclohexane 325 ul, Shaken RT, solid XRPD
  Result: Crystalline,
[3]; Exp. 23, solvent ethyl acetate 60 ul, anti-solvent methylcyclohexane 325 ul
  Initial result: Precipitate
[3]; Exp. 24, chloroform 60 ul / Pentane 75 ul, Shaken RT, solid XRPD
  Result: Crystalline
[3]; Exp. 24, solvent chloroform 60 ul, anti-solvent Pentane 75 ul
  Initial result: Precipitate
[3]; Exp. 25, chloroform 60 ul / cyclohexane 125 ul, Shaken RT, solid XRPD
  Result: Crystalline
[3]; Exp. 25, solvent chloroform 60 ul, anti-solvent cyclohexane 125 ul
  Initial result: Precipitate
[3]; Exp. 26, chloroform 60 ul / methylcyclohexane 75 ul, Shaken RT, solid XRPD
  Result: Crystalline
[3]; Exp. 26, solvent chloroform 60 ul, anti-solvent methylcyclohexane 75 ul
  Initial result: Precipitate
[3]; Exp. 27, DCM 80 ul / Pentane 100 ul, Shaken RT, solid XRPD
  Result: Crystalline
[3]; Exp. 27, solvent DCM 80 ul, anti-solvent Pentane 100 ul
  Initial result: Precipitate
[3]; Exp. 28, DCM 80 ul / cyclohexane 50 ul, Shaken RT, solid XRPD
  Result: Crystalline
[3]; Exp. 28, solvent DCM 80 ul, anti-solvent cyclohexane 50 ul
  Initial result: Precipitate
[3]; Exp. 29, DCM 80 ul / methylcyclohexane 50 ul, Shaken RT, solid XRPD
  Result: Crystalline
[3]; Exp. 29, solvent DCM 80 ul, anti-solvent methylcyclohexane 50 ul
  Initial result: Precipitate
[3]; Exp. number not given, ethyl acetate 60 ul / Toluene 100 ul, Shaken RT, refrigerated
  Result: Soluble
[3]; Exp. number not given, solvent ethyl acetate 60 ul, anti-solvent Toluene 100 ul
  Initial result: Soluble
[4]; [8]
  Decomposition after melting and rapid cooling (1H NMR or UPLC): not significantly decomposed
  UPLC purity after melting and rapid cooling: 98.7%
[4]; heated 10° C./min to 110° C., cooled to 30° C. at 50° C./min
  Degradation after melting and cooling (1H NMR): no degradation or migration
[5]
  logP: 1.32
[5]; shake flask
  logD: 1.32
[6]; conclusion including heptane slurries, room temperature and 50° C., 25 days
  Relative thermodynamic stability: more thermodynamically stable than Pattern 11 and Pattern 6
[6]; in DIPE at room temperature and 50° C., after 1 day
  Relative thermodynamic stability: more thermodynamically stable than Pattern 3, Pattern 6 and Pattern 11
[7]; 40° C./75% RH
  1H NMR post storage at 40° C./75% RH for 7 days: Consistent with structure
  XRPD post storage at 40° C./75% RH for 7 days (change in form): no change in morphology; also recorded: Shows no change in form by XRPD post storage
[7]; 40° C./75% RH, initial UPLC purity 98.6%
  UPLC purity post storage at 40° C./75% RH for 7 days: 97.4%
[7]; 40° C./75% RH, listed as Pattern 1
  XRPD post storage at 40° C./75% RH for 7 days (change in form): no morphological change
[7]; RT/97% RH
  1H NMR purity post storage at RT/97% RH for 7 days: Consistent with structure
  XRPD post storage at RT/97% RH for 7 days (change in form): no change in morphology; also recorded: Shows no change in form by XRPD post storage
[7]; RT/97% RH, initial UPLC purity 98.6%
  UPLC purity post storage at RT/97% RH for 7 days: 97.7%
[7]; RT/97% RH, listed as Pattern 1
  XRPD post storage at RT/97% RH for 7 days (change in form): no morphological change
